Key:
Format in all cases: cell-based
[1] = target: T1, IKZF1 (Homo sapiens, UniProt Q13422+Q96SW2); assay: Western-blot assay, substrate protein degradation in hPBMCs: IKZF1; details: for substrate protein remaining % IKZF1: 24 hours of compound treatment, 50 nM and 500 nM; for IKZF1 substrate protein remaining %: compounds at 50 nM and 500 nM, 24 hours
T1 construct: effects of the compounds of the present disclosure on the expression of target proteins in cells; endogenous in cells; host or cells: human PBMCs (hPBMCs)

[2] = target: T2, GSPT1 (Homo sapiens, UniProt P15170+Q96SW2); assay: Western-blot assay, substrate protein degradation in hPBMCs: GSPT1; details: for substrate protein remaining % GSPT1: 24 hours of compound treatment, 50 nM and 500 nM; for GSPT1 substrate protein remaining %: compounds at 50 nM and 500 nM, 24 hours
T2 construct: effects of the compounds of the present disclosure on the expression of target proteins in cells; endogenous in cells; host or cells: human PBMCs (hPBMCs)

[3] = target: T3, CK1α (Homo sapiens, UniProt P48729+Q96SW2); assay: Western-blot assay, substrate protein degradation in hPBMCs: CK1α; details: for substrate protein remaining % CK1α: 24 hours of compound treatment, 50 nM and 500 nM; for CK1α substrate protein remaining %: compounds at 50 nM and 500 nM, 24 hours
T3 construct: effects of the compounds of the present disclosure on the expression of target proteins in cells; endogenous in cells; host or cells: human PBMCs (hPBMCs)

[4] = target: T4, WEE1 (Homo sapiens, UniProt P30291+Q96SW2); assay: Western-blot assay, substrate protein degradation in hPBMCs: WEE1; details: for substrate protein remaining % WEE1: 24 hours of compound treatment, 50 nM and 500 nM; for WEE1 substrate protein remaining %: compounds at 50 nM and 500 nM, 24 hours
T4 construct: effects of the compounds of the present disclosure on the expression of target proteins in cells; endogenous in cells; host or cells: human PBMCs (hPBMCs)

[5] = target: T5, IKZF3 (Homo sapiens, UniProt Q96SW2+Q9UKT9); assay: Western-blot assay, substrate protein degradation in hPBMCs: IKZF3; details: for substrate protein remaining % IKZF3: 24 hours of compound treatment, 50 nM and 500 nM; for IKZF3 substrate protein remaining %: compounds at 50 nM and 500 nM, 24 hours
T5 construct: effects of the compounds of the present disclosure on the expression of target proteins in cells; endogenous in cells; host or cells: human PBMCs (hPBMCs)

[6] = target: T6, IKZF2 (Homo sapiens, UniProt Q96SW2+Q9UKS7); assay: Western-blot assay, substrate protein degradation in hPBMCs: IKZF2; details: for substrate protein remaining % IKZF2: 24 hours of compound treatment, 50 nM and 500 nM; for IKZF2 substrate protein remaining %: compounds at 50 nM and 500 nM, 24 hours
T6 construct: effects of the compounds of the present disclosure on the expression of target proteins in cells; endogenous in cells; host or cells: human PBMCs (hPBMCs)
T6 sequence (Q9UKS7 whole entry): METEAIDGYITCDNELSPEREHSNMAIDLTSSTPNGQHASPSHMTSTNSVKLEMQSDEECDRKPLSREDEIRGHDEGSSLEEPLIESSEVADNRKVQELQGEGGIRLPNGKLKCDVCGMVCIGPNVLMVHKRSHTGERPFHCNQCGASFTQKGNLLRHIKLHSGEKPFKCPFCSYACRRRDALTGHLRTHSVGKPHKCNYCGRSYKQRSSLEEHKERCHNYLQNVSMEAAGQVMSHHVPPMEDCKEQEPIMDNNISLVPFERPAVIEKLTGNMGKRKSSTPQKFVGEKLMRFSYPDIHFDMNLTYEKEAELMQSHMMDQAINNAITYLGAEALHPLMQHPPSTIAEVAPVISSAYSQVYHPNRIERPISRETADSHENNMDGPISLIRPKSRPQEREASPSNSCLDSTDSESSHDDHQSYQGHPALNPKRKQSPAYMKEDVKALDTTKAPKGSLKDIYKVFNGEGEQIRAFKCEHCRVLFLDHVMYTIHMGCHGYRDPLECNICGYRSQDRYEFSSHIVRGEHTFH
T6 sequence (Q96SW2 whole entry): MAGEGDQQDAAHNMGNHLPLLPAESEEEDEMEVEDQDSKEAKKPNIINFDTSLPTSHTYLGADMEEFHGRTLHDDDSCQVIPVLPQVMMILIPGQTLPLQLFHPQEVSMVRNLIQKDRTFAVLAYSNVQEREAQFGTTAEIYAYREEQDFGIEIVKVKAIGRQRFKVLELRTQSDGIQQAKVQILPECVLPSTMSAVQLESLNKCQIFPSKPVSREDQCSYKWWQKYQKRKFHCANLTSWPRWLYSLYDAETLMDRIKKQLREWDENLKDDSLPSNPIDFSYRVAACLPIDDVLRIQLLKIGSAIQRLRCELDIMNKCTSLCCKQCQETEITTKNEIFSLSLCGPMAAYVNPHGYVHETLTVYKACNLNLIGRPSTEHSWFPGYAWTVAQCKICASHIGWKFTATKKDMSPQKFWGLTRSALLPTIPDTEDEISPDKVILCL
T6 sequence (Q16531 whole entry partner): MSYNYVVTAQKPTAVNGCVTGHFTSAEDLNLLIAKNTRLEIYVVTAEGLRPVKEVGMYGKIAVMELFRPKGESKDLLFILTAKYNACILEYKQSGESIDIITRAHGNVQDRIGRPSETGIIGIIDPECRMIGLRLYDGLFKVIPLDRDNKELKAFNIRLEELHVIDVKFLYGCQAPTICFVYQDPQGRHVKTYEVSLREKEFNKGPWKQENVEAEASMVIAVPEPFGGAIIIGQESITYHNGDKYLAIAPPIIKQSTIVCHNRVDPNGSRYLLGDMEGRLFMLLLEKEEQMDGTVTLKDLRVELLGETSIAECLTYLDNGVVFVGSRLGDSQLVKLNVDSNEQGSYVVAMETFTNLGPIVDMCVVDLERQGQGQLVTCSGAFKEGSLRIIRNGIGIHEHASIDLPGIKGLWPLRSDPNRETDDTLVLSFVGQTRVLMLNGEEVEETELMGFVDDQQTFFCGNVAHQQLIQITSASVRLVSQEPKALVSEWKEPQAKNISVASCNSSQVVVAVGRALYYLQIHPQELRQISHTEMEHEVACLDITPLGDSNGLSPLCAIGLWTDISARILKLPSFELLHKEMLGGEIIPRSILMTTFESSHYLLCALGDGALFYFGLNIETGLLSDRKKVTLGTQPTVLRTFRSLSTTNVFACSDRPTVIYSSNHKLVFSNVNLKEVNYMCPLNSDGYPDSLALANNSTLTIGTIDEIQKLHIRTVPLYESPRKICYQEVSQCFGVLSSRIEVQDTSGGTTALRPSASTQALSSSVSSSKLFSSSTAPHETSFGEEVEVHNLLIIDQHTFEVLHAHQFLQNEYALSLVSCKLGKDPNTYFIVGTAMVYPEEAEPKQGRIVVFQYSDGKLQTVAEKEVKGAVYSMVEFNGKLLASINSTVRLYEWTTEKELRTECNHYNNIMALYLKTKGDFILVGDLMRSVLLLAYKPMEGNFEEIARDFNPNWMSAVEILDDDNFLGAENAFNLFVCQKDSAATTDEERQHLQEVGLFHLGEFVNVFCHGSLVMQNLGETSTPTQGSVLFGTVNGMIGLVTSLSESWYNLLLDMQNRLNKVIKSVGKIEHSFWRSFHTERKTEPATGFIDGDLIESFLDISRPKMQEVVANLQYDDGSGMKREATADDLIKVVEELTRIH

T2 sequence (P15170 whole entry): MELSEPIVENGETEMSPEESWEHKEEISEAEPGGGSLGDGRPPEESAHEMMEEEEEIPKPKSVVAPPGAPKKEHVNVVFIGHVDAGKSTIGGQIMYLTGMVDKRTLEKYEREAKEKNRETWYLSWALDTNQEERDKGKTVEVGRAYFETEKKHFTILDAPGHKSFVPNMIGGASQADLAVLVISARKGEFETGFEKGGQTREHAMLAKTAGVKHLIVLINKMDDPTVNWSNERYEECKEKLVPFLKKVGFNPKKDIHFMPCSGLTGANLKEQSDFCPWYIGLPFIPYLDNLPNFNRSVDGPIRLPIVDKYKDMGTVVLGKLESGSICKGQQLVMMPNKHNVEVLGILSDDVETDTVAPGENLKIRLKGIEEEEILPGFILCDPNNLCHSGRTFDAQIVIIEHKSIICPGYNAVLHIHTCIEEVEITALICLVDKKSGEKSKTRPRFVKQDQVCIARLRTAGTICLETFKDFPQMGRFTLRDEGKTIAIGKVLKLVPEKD
T2 sequence (Q96SW2 whole entry): as the sequence (Q96SW2 whole entry) above
T2 sequence (Q16531 whole entry partner): as the sequence (Q16531 whole entry partner) above
T1 sequence (Q13422 whole entry): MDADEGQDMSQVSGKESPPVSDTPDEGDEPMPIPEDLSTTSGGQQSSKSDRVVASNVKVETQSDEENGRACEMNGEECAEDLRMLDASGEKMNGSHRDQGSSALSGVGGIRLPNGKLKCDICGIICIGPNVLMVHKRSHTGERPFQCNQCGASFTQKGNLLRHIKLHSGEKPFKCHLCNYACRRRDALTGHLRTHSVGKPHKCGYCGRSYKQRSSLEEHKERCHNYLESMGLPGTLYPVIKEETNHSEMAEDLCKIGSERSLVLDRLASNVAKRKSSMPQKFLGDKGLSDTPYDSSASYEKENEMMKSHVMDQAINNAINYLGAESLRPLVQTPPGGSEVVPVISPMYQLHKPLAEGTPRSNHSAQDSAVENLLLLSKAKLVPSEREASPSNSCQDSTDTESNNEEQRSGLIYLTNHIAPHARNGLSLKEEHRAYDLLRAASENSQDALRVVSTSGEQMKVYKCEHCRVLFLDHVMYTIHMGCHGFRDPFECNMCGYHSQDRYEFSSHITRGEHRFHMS
T1 sequence (Q96SW2 whole entry): as the sequence (Q96SW2 whole entry) above
T1 sequence (Q16531 whole entry partner): as the sequence (Q16531 whole entry partner) above
T5 sequence (Q9UKT9 whole entry): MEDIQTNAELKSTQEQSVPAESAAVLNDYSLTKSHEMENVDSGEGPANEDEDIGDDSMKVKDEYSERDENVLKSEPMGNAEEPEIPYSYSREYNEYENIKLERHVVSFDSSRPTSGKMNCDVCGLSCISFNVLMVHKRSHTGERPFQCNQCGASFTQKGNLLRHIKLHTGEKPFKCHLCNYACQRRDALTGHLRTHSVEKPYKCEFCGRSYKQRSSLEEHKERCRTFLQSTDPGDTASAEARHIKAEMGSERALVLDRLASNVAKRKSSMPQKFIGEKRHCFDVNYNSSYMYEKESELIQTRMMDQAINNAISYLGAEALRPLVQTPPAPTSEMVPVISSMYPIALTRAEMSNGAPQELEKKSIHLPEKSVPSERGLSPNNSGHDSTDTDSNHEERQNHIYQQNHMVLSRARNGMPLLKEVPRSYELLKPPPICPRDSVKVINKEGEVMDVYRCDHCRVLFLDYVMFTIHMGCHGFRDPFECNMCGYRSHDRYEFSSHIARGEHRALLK
T5 sequence (Q96SW2 whole entry): as the sequence (Q96SW2 whole entry) above
T5 sequence (Q16531 whole entry partner): as the sequence (Q16531 whole entry partner) above
T3 sequence (P48729 whole entry): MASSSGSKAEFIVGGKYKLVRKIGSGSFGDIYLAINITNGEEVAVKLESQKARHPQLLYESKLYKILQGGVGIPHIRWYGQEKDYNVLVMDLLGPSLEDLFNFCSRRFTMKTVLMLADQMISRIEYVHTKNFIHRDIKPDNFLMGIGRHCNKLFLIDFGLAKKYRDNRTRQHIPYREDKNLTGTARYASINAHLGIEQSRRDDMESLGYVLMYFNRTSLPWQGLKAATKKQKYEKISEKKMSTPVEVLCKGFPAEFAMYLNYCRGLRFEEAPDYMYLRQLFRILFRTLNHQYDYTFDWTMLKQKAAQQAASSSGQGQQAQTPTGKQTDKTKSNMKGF
T3 sequence (Q96SW2 whole entry): as the sequence (Q96SW2 whole entry) above
T3 sequence (Q16531 whole entry partner): as the sequence (Q16531 whole entry partner) above

## O=C1CCN(N2C(=O)c3ccc(CN4CCC(N5CCCc6cc(F)ccc65)CC4)cc3C2=O)C(=O)N1 [GT-07681, 2-(2,4-dioxotetrahydropyrimidin-1(2H)-yl)-5-((4-(6-fluoro-3,4-dihydroquinolin-1(2H)-yl)piperidin-1-yl)methyl)isoindoline-1,3-dione]
[1]
  substrate protein remaining % IKZF1: A (0% ≤ substrate protein remaining % ≤ 80%)
[2]
  substrate protein remaining % GSPT1: A (0% ≤ substrate protein remaining % ≤ 80%)
[3]
  substrate protein remaining % CK1α: B (80%< substrate protein remaining %≤ 100%)
[4]
  substrate protein remaining % WEE1: B (80%< substrate protein remaining %≤ 100%)
[5]
  substrate protein remaining % IKZF3: B (80%< substrate protein remaining %≤ 100%)
[6]
  substrate protein remaining % IKZF2: B (80%< substrate protein remaining %≤ 100%)

## O=C1CCN(N2Cc3cc(CN4CCn5c(nnc5C(F)(F)F)C4)ccc3C2=O)C(=O)N1 [GT-07719, 1-(1-oxo-5-((3-(trifluoromethyl)-5,6-dihydro-[1,2,4]triazolo[4,3-a]pyrazin-7(8H)-yl)methyl)isoindolin-2-yl)dihydropyrimidine-2,4(1H,3H)-dione]
[1]
  substrate protein remaining % IKZF1: B (80%< substrate protein remaining %≤ 100%)
[2]
  substrate protein remaining % GSPT1: A (0% ≤ substrate protein remaining % ≤ 80%)
[3]
  substrate protein remaining % CK1α: A (0% ≤ substrate protein remaining % ≤ 80%)
[4]
  substrate protein remaining % WEE1: B (80%< substrate protein remaining %≤ 100%)
[5]
  substrate protein remaining % IKZF3: A (0% ≤ substrate protein remaining % ≤ 80%)
[6]
  substrate protein remaining % IKZF2: A (0% ≤ substrate protein remaining % ≤ 80%)

## O=C1CCN(N2C(=O)c3ccc(CN4CCN(c5ccncc5F)CC4)cc3C2=O)C(=O)N1 [GT-07164, 2-(2,4-dioxotetrahydropyrimidin-1(2H)-yl)-5-((4-(3-fluoropyridin-4-yl)piperazin-1-yl)methyl)isoindoline-1,3-dione]
[1]
  IKZF1 substrate protein remaining %: B ("B" is defined as 80%< substrate protein remaining %≤ 100%)
[2]
  GSPT1 substrate protein remaining %: A ("A" is defined as 0% ≤ substrate protein remaining % ≤ 80%)
[3]
  CK1α substrate protein remaining %: B ("B" is defined as 80%< substrate protein remaining %≤ 100%)
[4]
  WEE1 substrate protein remaining %: B ("B" is defined as 80%< substrate protein remaining %≤ 100%)
[5]
  IKZF3 substrate protein remaining %: B ("B" is defined as 80%< substrate protein remaining %≤ 100%)
[6]
  IKZF2 substrate protein remaining %: A ("A" is defined as 0% ≤ substrate protein remaining % ≤ 80%)

## O=C1CCN(N2C(=O)c3ccc(CN4CCC(c5ccc(F)cc5)CC4)cc3C2=O)C(=O)N1 [GT-06878, 2-(2,4-dioxotetrahydropyrimidin-1(2H)-yl)-5-((4-(4-fluorophenyl)piperidin-1-yl)methyl)isoindoline-1,3-dione]
[1]
  IKZF1 substrate protein remaining %: B ("B" is defined as 80%< substrate protein remaining %≤ 100%)
[2]
  GSPT1 substrate protein remaining %: A ("A" is defined as 0% ≤ substrate protein remaining % ≤ 80%)
[3]
  CK1α substrate protein remaining %: A ("A" is defined as 0% ≤ substrate protein remaining % ≤ 80%)
[4]
  WEE1 substrate protein remaining %: B ("B" is defined as 80%< substrate protein remaining %≤ 100%)
[5]
  IKZF3 substrate protein remaining %: B ("B" is defined as 80%< substrate protein remaining %≤ 100%)
[6]
  IKZF2 substrate protein remaining %: B ("B" is defined as 80%< substrate protein remaining %≤ 100%)

## Cc1ccsc1C1=CCN(Cc2ccc3c(c2)C(=O)N(N2CCC(=O)NC2=O)C3=O)CC1 [GT-06434, 2-(2,4-dioxotetrahydropyrimidin-1(2H)-yl)-5-((4-(3-methylthiophen-2-yl)-3,6-dihydropyridin-1(2H)-yl)methyl)isoindoline-1,3-dione]
[1]
  IKZF1 substrate protein remaining %: B ("B" is defined as 80%< substrate protein remaining %≤ 100%)
[2]
  GSPT1 substrate protein remaining %: A ("A" is defined as 0% ≤ substrate protein remaining % ≤ 80%)
[3]
  CK1α substrate protein remaining %: B ("B" is defined as 80%< substrate protein remaining %≤ 100%)
[4]
  WEE1 substrate protein remaining %: A ("A" is defined as 0% ≤ substrate protein remaining % ≤ 80%)
[5]
  IKZF3 substrate protein remaining %: A ("A" is defined as 0% ≤ substrate protein remaining % ≤ 80%)
[6]
  IKZF2 substrate protein remaining %: A ("A" is defined as 0% ≤ substrate protein remaining % ≤ 80%)

## O=C1CCN(N2C(=O)c3ccc(CN4CCc5sccc5C4)cc3C2=O)C(=O)N1 [GT-05254, 5-((6,7-dihydrothieno[3,2-c]pyridin-5(4H)-yl)methyl)-2-(2,4-dioxotetrahydropyrimidin-1(2H)-yl)isoindoline-1,3-dione]
[1]
  IKZF1 substrate protein remaining %: B ("B" is defined as 80%< substrate protein remaining %≤ 100%)
[2]
  GSPT1 substrate protein remaining %: A ("A" is defined as 0% ≤ substrate protein remaining % ≤ 80%)
[3]
  CK1α substrate protein remaining %: B ("B" is defined as 80%< substrate protein remaining %≤ 100%)
[4]
  WEE1 substrate protein remaining %: B ("B" is defined as 80%< substrate protein remaining %≤ 100%)
[5]
  IKZF3 substrate protein remaining %: B ("B" is defined as 80%< substrate protein remaining %≤ 100%)
[6]
  IKZF2 substrate protein remaining %: B ("B" is defined as 80%< substrate protein remaining %≤ 100%)

## O=C1CCN(N2Cc3cc(CN4CCN(c5ccnc(Cl)c5Cl)CC4)ccc3C2=O)C(=O)N1 [GT-07169, 1-(5-((4-(2,3-dichloropyridin-4-yl)piperazin-1-yl)methyl)-1-oxoisoindolin-2-yl)dihydropyrimidine-2,4(1H,3H)-dione]
[1]
  IKZF1 substrate protein remaining %: B ("B" is defined as 80%< substrate protein remaining %≤ 100%)
[2]
  GSPT1 substrate protein remaining %: B ("B" is defined as 80%< substrate protein remaining %≤ 100%)
[3]
  CK1α substrate protein remaining %: B ("B" is defined as 80%< substrate protein remaining %≤ 100%)
[4]
  WEE1 substrate protein remaining %: A ("A" is defined as 0% ≤ substrate protein remaining % ≤ 80%)
[5]
  IKZF3 substrate protein remaining %: B ("B" is defined as 80%< substrate protein remaining %≤ 100%)
[6]
  IKZF2 substrate protein remaining %: B ("B" is defined as 80%< substrate protein remaining %≤ 100%)

## Cc1ccc(C2=CCN(Cc3ccc4c(c3)C(=O)N(N3CCC(=O)NC3=O)C4=O)CC2)s1 [GT-05310, 2-(2,4-dioxotetrahydropyrimidin-1(2H)-yl)-5-((4-(5-methylthiophen-2-yl)-3,6-dihydropyridin-1(2H)-yl)methyl)isoindoline-1,3-dione]
[1]
  IKZF1 substrate protein remaining %: B ("B" is defined as 80%< substrate protein remaining %≤ 100%)
[2]
  GSPT1 substrate protein remaining %: A ("A" is defined as 0% ≤ substrate protein remaining % ≤ 80%)
[3]
  CK1α substrate protein remaining %: B ("B" is defined as 80%< substrate protein remaining %≤ 100%)
[4]
  WEE1 substrate protein remaining %: B ("B" is defined as 80%< substrate protein remaining %≤ 100%)
[5]
  IKZF3 substrate protein remaining %: B ("B" is defined as 80%< substrate protein remaining %≤ 100%)
[6]
  IKZF2 substrate protein remaining %: B ("B" is defined as 80%< substrate protein remaining %≤ 100%)

## C[C@@H]1CN(C(c2ccccc2)c2ccccc2)CCN1Cc1ccc2c(c1)C(=O)N(N1CCC(=O)NC1=O)C2=O [GT-06449, (R)-5-((4-benzhydryl-2-methylpiperazin-1-yl)methyl)-2-(2,4-dioxotetrahydropyrimidin-1(2H)-yl)isoindoline-1,3-dione]
[1]
  IKZF1 substrate protein remaining %: B ("B" is defined as 80%< substrate protein remaining %≤ 100%)
[2]
  GSPT1 substrate protein remaining %: A ("A" is defined as 0% ≤ substrate protein remaining % ≤ 80%)
[3]
  CK1α substrate protein remaining %: B ("B" is defined as 80%< substrate protein remaining %≤ 100%)
[4]
  WEE1 substrate protein remaining %: B ("B" is defined as 80%< substrate protein remaining %≤ 100%)
[5]
  IKZF3 substrate protein remaining %: A ("A" is defined as 0% ≤ substrate protein remaining % ≤ 80%)
[6]
  IKZF2 substrate protein remaining %: A ("A" is defined as 0% ≤ substrate protein remaining % ≤ 80%)

## O=C1CCN(N2C(=O)c3ccc(CN4CCC(N5CCOc6cc(F)ccc65)CC4)cc3C2=O)C(=O)N1 [GT-07682, 2-(2,4-dioxotetrahydropyrimidin-1(2H)-yl)-5-((4-(7-fluoro-2,3-dihydro-4H-benzo[b][1,4]oxazin-4-yl)piperidin-1-yl)methyl)isoindoline-1,3-dione]
[1]
  substrate protein remaining % IKZF1: B (80%< substrate protein remaining %≤ 100%)
[2]
  substrate protein remaining % GSPT1: A (0% ≤ substrate protein remaining % ≤ 80%)
[3]
  substrate protein remaining % CK1α: B (80%< substrate protein remaining %≤ 100%)
[4]
  substrate protein remaining % WEE1: B (80%< substrate protein remaining %≤ 100%)
[5]
  substrate protein remaining % IKZF3: B (80%< substrate protein remaining %≤ 100%)
[6]
  substrate protein remaining % IKZF2: B (80%< substrate protein remaining %≤ 100%)

Reference: patent publication EP4722207A1, “OXOISOINDOLINYL-SUBSTITUTED TETRAHYDROPYRIMIDINEDIONE DERIVATIVE AND USE THEREOF” (Gluetacs Therapeutics (Shanghai) Co., Ltd., priority 2023, dated 2024)
